Measured values reported in publication PMC11451635, “A Broad Spectrum Lasso Peptide Antibiotic Targeting the Bacterial Ribosome” (Research Square, 2024).
In brackets after ≈: the same amount, converted by molar mass. Entries after “also recorded” stand apart in the source; their conditions may differ. Where two headings read alike, the source gives them in different places. Where a SMILES comes first, the peptide text is derived from it. Bridges are numbered along the chain shown (N, C = ends).

Columns and labels:
bacteria (Table 1) = test: MIC in nutrient-limited media; type: cell-based; settings: nutrient-limited media vs MHB
Protocol: (§1) MICs were determined using broth microdilution method in cation-adjusted Mueller-Hinton Broth (MHBII, BD Difco) following standard procedures unless stated otherwise. Mycobacteria susceptibility was tested in Middlebrook 7H9 medium supplemented with 10% OADC Enrichment (oleic acid, bovine albumin, dextrose, and catalase) (BD Difco). The compounds (2 to 4 μl) were mixed with diluted cultures (5–7 × 10^5 cfu/mL) in MHB (196 to 198 μL) in 96-well round-bottom plates, and 2-fold serial dilutions were made. Plates were incubated at 37°C for 18–22 h, and OD600 readings were taken on Synergy Microplate Reader (Biotek). MIC was determined to be the lowest concentration of antibiotics with no visible growth. For Mycobacterial cultures, the plates were read after two to three days. Susceptibility was also assessed in MOPS minimal medium with 0.4% glucose (M2106 Teknova) and RPMI-1640 medium. Serum effects were tested in MHB with 10% or 50% fetal bovine serum (Invitrogen) or human serum (Heat Inactivated, from human male AB plasma; Sigma-Aldrich). For anaerobic conditions, E. coli was incubated in BD GasPak™ EZ pouch systems. To adjust the pH of the media, 1M NaOH or 1N HCl was used.

E. coli BW25113 [1] = test: Cell lysis assay (optical density); type: cell-based, Escherichia coli; settings: exponential E. coli culture, OD600 over 6 h
Protocol: (§2) E. coli BW25113 was grown overnight in 5 ml MOPS minimal medium and diluted 1:100 in 3 ml of fresh medium in 14 ml culture tubes. Cells were grown for three to four hours to reach mid-exponential phase (OD600 0.4–0.6) and treated with 10xMIC of LAR (40 μg/ml) or colistin (2.5 to 5 μg/ml) in 1 ml culture at 37°C with agitation at 250 rpm. Cultures were sampled at various times, centrifuged at 10,000 xg for 3 min, and plated on MHA plates. The number of colony forming units (cfu) was determined after incubating plates for 20–24 hr at 37°C. A time-kill assay against A. baumannii C0286 was performed in MHB. For cell lysis assay, cultures were prepared as described above. Initial OD600 was adjusted to 0.15–0.2, and 98 μl of culture was added to a 96-well plate containing 2 μl of compound. The plates were incubated with orbital shaking at maximum speed with a Synergy Microplate Reader (Biotek), and OD600 was measured over 6 h. Experiments were performed in two to three biological replicates. For colistin in cell lysis assay, clumping of cells was observed after ≈2h, leading to a false increase in OD; therefore, data for colistin was not plotted after this period. The plate was manually mixed on a vortex, and the turbidity of colistin-treated wells was confirmed.

E. coli BW25113 membrane = test: Propidium iodide uptake assay; type: cell-based, Escherichia coli; settings: propidium iodide 4 μM, 30 min, RT, fluorescence
Protocol: E. coli BW25113 cells were prepared as described above and mixed with propidium iodide (final concentration 4 μM). Cell suspension (190 μL) was then placed into wells of a 96-well black-wall plate and supplemented with 10 μL of compounds at various concentrations. Fluorescence (lex/lem: 535/617 nm) was monitored for 30 min at RT in a Synergy Microplate Reader (Biotek). Colistin was used as a positive control.

E. coli BW25113 [2] = test: Selection of spontaneous resistant mutants; type: cell-based, Escherichia coli; settings: ~10^9 cfu on MOPS minimal agar, 37°C, 24–48 h
human erythrocytes = test: Haemolysis
[3] = test system: Clostridium perfringens GC1584; settings: column MHB; method: BHI + L-cysteine, hemin, vitamin K, anaerobic, 37 °C
E. coli BW25113 [4] = test: Time-dependent killing; type: cell-based, Escherichia coli; settings: 10xMIC (40 μg/ml), MOPS minimal medium, 37°C
Protocol: as §2

E coli BW25113 ΔbamB = settings: 18–22 h
E. coli = test: MIC under anaerobic conditions; type: cell-based, Escherichia coli; settings: anaerobic vs aerobic
Protocol: as §1

[5] = test system: E. coli strain CA244 lacZ C1456T; test: Miscoding assay (lacZ premature stop codon readthrough); settings: MOPS agar, X-gal 80 μg/ml, IPTG 250 μM; 60.7 μg LAR spotted, ~18 h, 37°C
E. coli ribosome = test: Translocation inhibition assay; type: biochemical, Escherichia coli; settings: 62.5 μM LAR or 250 μM negamycin, EF-G/GTP, primer extension
[6] = test system: rabbit reticulocyte lysate (luc mRNA); test: In vitro translation in rabbit reticulocyte lysate; type: biochemical
Protocol: The effect of LAR on eukaryotic translation was assessed using Rabbit Reticulocyte Lysate System (L4960, Promega) programmed with firefly luciferase mRNA. In vitro reactions were assembled according to the manufacturer’s protocol in a nal volume of 10 μL supplemented with 0.02–50 μM of LAR or no antibiotic and incubated for 90 min at 30°C. After that, 2.5 μL from each reaction was mixed with 50 μl of prewarmed luciferase assay reagent, and the luminescence was measured in Infinite M200 PRO plate reader (TECAN) for 10 min at 25°C. The assay was performed in triplicate.

`CC(C)[C@H](NC(=O)CNC(=O)[C@H](CCCNC(=N)N)NC(=O)CNC(=O)[C@H](Cc1ccccc1)NC(=O)[C@H](CCCCN)NC(=O)CNC(=O)[C@@H]1CC(=O)N[C@@H](CO)C(=O)N[C@@H](CCCCN)C(=O)N[C@@H](CCCCN)C(=O)N[C@@H](CO)C(=O)N[C@@H](CCCCN)C(=O)N2CCC[C@H]2C(=O)NCC(=O)N1)C(=O)N[C@@H](CCCCN)C(=O)N[C@@H](CCCNC(=N)N)C(=O)NCC(=O)O` [LAR, lariocidin] (SKKSKPGDGKFGRGVKRG-OH; lactam N-8) was tested, and the “MIC reduction in nutrient-limited media” value (bacteria (Table 1)) was at most 128 fold, the “Effect on culture optical density (lysis)” value (E. coli BW25113 [1]) was “did not cause a decrease in the optical density of the culture below the initial point” and the Membrane permeabilization (E. coli BW25113 membrane) was “did not permeabilize”. For the same molecule, the MIC (M. smegmatis MC^2 155) was 1 to 2 µg/mL, the “MIC (text)” value (M. smegmatis MC^2 155) was 1 to 2 µg/mL and the “Frequency of resistant mutants” value (E. coli BW25113 [2]) was ~ 10^−8. For the same molecule, the “Hemolytic activity” value (human erythrocytes) was “did not display hemolytic activity”, the Haemolysis (human erythrocytes; 500 μg/ml, human erythrocytes in PBS pH 7.4, 1 h, 37°C, 540 nm, Triton X-100 = 100%) was under 1% and the MIC [3] was over 256 µg/mL. The “Viable cell count / bactericidal activity” value (E. coli BW25113 [4]) was “dramatically reduced the viable cell count; also recorded: exhibits bactericidal activity”, the MIC (E coli BW25113 ΔbamB; MHB, 37°C) was 32 µg/mL (≈ 17.1 µM) and the MIC (E coli BW25113 ΔbamB; RPMI-1640, 37°C) was 1 µg/mL (≈ 0.534 µM). For the same molecule, the “Increase in MIC under anaerobic conditions” value (E. coli) was 4-to-8 fold, the “Miscoding / premature stop codon readthrough” value [5] was “induces miscoding; also recorded: induces premature stop codon readthrough” and the “Inhibition of ribosome translocation” value (E. coli ribosome) was “inhibits ribosome translocation; also recorded: this reaction was inhibited when LAR was present”. For the same molecule, the “Effect on eukaryotic translation” value [6] was “only a marginal effect on eukaryotic translation”, the IC50 ([6]; luc mRNA, 0.02–50 μM LAR, 90 min, 30°C, luminescence, mean of three experiments, read-out: IC50, protein biosynthesis) was 14.2 µM and the “IC50 in mammalian cell-free translation vs bacterial” value ([6]; ratio to E. coli system IC50) was ~ 58 fold.
